Reference: patent US20250025451A1, “TREATMENT OF CANCER WITH KDM4 INHIBITORS” (Celgene Corporation, priority 2021, published 2025)

Tested on: 301 cancer cell lines from different tumor types
Assay: 2D cell viability inhibition assay, broad cancer cell line panel (OncoPanel; CellTiter-Glo)
Assay type: cell-based
Parameters: key to Emax: % of DMSO control (minimum response over dose range); AUC: scale not given here
Details: for AUC / Emax: 168 hours; for Emax: in % (unit assumed)
Procedure: In a larger screening study, compound 1 was evaluated across a broad cancer cell line panel (OncoPanel; HD Biosciences) composed of 301 cancer cell lines from different tumor types.
2D cell viability inhibition assays were performed in multiwell plates seeded with cells from the panel. After seeding, the plates were cultured overnight in a humidified incubator at 37° C. to promote adherence. Assays were initiated in individual wells by adding either DMSO as a vehicle control, growth media as a blank, or serially diluted compound 1 (10 μM to 0.0005 μM with 1:3 serial dilution). Cultures were incubated for 168 hours after which the number of viable cells in each test well was assessed using the CellTiter-Glo® Luminescent Cell Viability Assay. Luminescence readouts were performed using an EnVision® Multilabel Reader and the compound 1 readouts were normalized to the DMSO control readouts, expressed as a percent of the control. Outliers were flagged out by visual inspection. Percent of control was plotted against the corresponding compound 1 concentration and the absolute IC50 value was determined using four-parameter logistic non-linear regression as the concentration where inhibition was 50% of the control. […] Emax was recorded as the minimum in y with the compound dose range. […] The sensitive/moderate/resistant calls for each cell line was determined by visually inspecting the resulting clustering dendrogram. All the analyses were done in R Core Team.

[1] = 168 h, HUH28 (biliary tract, NS)
[2] = 168 h, KG1 (haematopoietic and lymphoid tissue, acute myeloid leukaemia)
[3] = 168 h, KURAMOCHI (ovary, undifferentiated carcinoma)
[4] = 168 h, NMCG1 (central nervous system, NS)
[5] = 168 h, T24 (urinary tract, transitional cell carcinoma)
[6] = 168 h, TE1 (oesophagus, squamous cell carcinoma)
[7] = 168 h, TE8 (oesophagus, squamous cell carcinoma)
[8] = BT20 (breast, ductal carcinoma)
[9] = BT474 (breast, ductal carcinoma)
[10] = C2BBE1 (large intestine, adenocarcinoma)
[11] = CAL27 (upper aerodigestive tract, squamous cell carcinoma)
[12] = CALU1 (lung, squamous cell carcinoma)
[13] = CAPAN2 (pancreas, ductal carcinoma)
[14] = CCFSTTG1 (central nervous system, astrocytoma)
[15] = DAOY (central nervous system, NS)
[16] = DMS53 (lung, small cell carcinoma)
[17] = HCC38 (breast, ductal carcinoma)
[18] = HCC1419 (breast, ductal carcinoma)
[19] = HCC1937 (breast, ductal carcinoma)
[20] = Homo sapiens, A204, 168 h, A204 (soft tissue, NS)
[21] = Homo sapiens, BT-20, 168 h, BT20 (breast, ductal carcinoma)
[22] = Homo sapiens, BT-474, 168 h, BT474 (breast, ductal carcinoma)
[23] = Homo sapiens, C2BBe1, 168 h, C2BBE1 (large intestine, adenocarcinoma)
[24] = Homo sapiens, CAL-27, 168 h, CAL27 (upper aerodigestive tract, squamous cell carcinoma)
[25] = Homo sapiens, CCF-STTG1, 168 h, CCFSTTG1 (central nervous system, astrocytoma)
[26] = Homo sapiens, Calu-1, 168 h, CALU1 (lung, squamous cell carcinoma)
[27] = Homo sapiens, Calu-3, 168 h, CALU3 (lung, adenocarcinoma)
[28] = Homo sapiens, Capan-2, 168 h, CAPAN2 (pancreas, ductal carcinoma)
[29] = Homo sapiens, DMS-53, 168 h, DMS53 (lung, small cell carcinoma)
[30] = Homo sapiens, Daoy, 168 h, DAOY (central nervous system, NS)
[31] = Homo sapiens, G-361, 168 h, G361 (skin, NS)
[32] = Homo sapiens, HCC38, 168 h, HCC38 (breast, ductal carcinoma)
[33] = Homo sapiens, HCC827, 168 h, HCC827 (lung, adenocarcinoma)
[34] = Homo sapiens, HCC1419, 168 h, HCC1419 (breast, ductal carcinoma)
[35] = Homo sapiens, HCC1428, 168 h, HCC1428 (breast, NS)
[36] = Homo sapiens, HCC1937, 168 h, HCC1937 (breast, ductal carcinoma)
[37] = Homo sapiens, HT-144, 168 h, HT144 (skin, NS)
[38] = Homo sapiens, Hs 695T, 168 h, HS695T (skin, NS)
[39] = Homo sapiens, KYSE-70, 168 h, KYSE70 (oesophagus, squamous cell carcinoma)
[40] = Homo sapiens, Kasumi 1, 168 h, KASUMI1 (haematopoietic and lymphoid tissue, acute myeloid leukaemia)
[41] = Homo sapiens, Lu-99, 168 h, LU99 (lung, large cell carcinoma)
[42] = Homo sapiens, MDA-MB-157, 168 h, MDAMB157 (breast, ductal carcinoma)
[43] = Homo sapiens, MDA-MB-175-VII, 168 h, MDAMB 175 VII (breast, ductal carcinoma)
[44] = Homo sapiens, MDA-MB-231, 168 h, MDAMB231 (breast, NS)
[45] = Homo sapiens, MDA-MB-361, 168 h, MDAMB361 (breast, NS)
[46] = Homo sapiens, MDA-MB-415, 168 h, MDAMB415 (breast, NS)
[47] = Homo sapiens, MDA-MB-436, 168 h, MDAMB436 (breast, NS)
[48] = Homo sapiens, MDA-MB-468, 168 h, MDAMB468 (breast, NS)
[49] = Homo sapiens, Malme-3M, 168 h, MALME3M (skin, NS)
[50] = Homo sapiens, MeWo, 168 h, MEWO (skin, NS)
[51] = Homo sapiens, NCI-H441, 168 h, NCIH441 (lung, adenocarcinoma)
[52] = Homo sapiens, NCI-H596, 168 h, NCIH596 (lung, mixed adenosquamous carcinoma)
[53] = Homo sapiens, NCI-H1395, 168 h, NCIH1395 (lung, adenocarcinoma)
[54] = Homo sapiens, NCI-H1563, 168 h, NCIH1563 (lung, adenocarcinoma)
[55] = Homo sapiens, NCI-H1573, 168 h, NCIH1573 (lung, adenocarcinoma)

Work on CC(C)c1ccc(N(C)c2ccc3c(c2)OCC[C@H]3CNc2cnccc2C(=O)O)cc1 [Compound 1, 3-({[(4R)-7-{methyl[4-(propan-2-yl)phenyl]amino}-3,4-dihydro-2H-1-benzopyran-4-yl]methyl}amino)pyridine-4-carboxylic acid] yielded an EC50 (168 h, HS688AT (skin, NS)) of at least 10 µM, an IC50 (168 h, HS688AT (skin, NS)) of at least 10 µM and an EC50 (168 h, HS739T (breast, NS)) of at least 10 µM. For the same compound, the IC50 (168 h, HS739T (breast, NS)) was at least 10 µM, the EC50 (168 h, HS839T (skin, NS)) was at least 10 µM and the IC50 (168 h, HS839T (skin, NS)) was at least 10 µM. The EC50 (168 h, HS852T (skin, NS)) was at least 10 µM, the IC50 (168 h, HS852T (skin, NS)) was at least 10 µM and the EC50 [1] was at least 10 µM. It also gave an IC50 [1] of at least 10 µM, an EC50 [2] of at least 10 µM and an IC50 [2] of at least 10 µM. For the same compound, the EC50 [3] was at least 10 µM, the IC50 [3] was at least 10 µM and the EC50 [4] was at least 10 µM. The IC50 [4] was at least 10 µM, the EC50 (168 h, SKMEL31 (skin, NS)) was at least 10 µM and the IC50 (168 h, SKMEL31 (skin, NS)) was at least 10 µM. For the same compound, the EC50 [5] was at least 10 µM, the IC50 [5] was at least 10 µM and the EC50 [6] was at least 10 µM. For the same compound, the IC50 [6] was at least 10 µM, the EC50 [7] was at least 10 µM and the IC50 [7] was at least 10 µM. For the same compound, the AUC (A204 (soft tissue, NS)) was 0.7136, the Emax (A204 (soft tissue, NS)) was 58.91 and the AUC [8] was 0.9117. It also gave an Emax [8] of 78.79, an AUC [9] of 0.7206 and an Emax [9] of 53.88. It also gave an AUC [10] of 0.8303, an Emax [10] of 59.34 and an AUC [11] of 0.8335. It also gave an Emax [11] of 74.68, an AUC [12] of 1.217 and an Emax [12] of 118.4694. The AUC (CALU3 (lung, adenocarcinoma)) was 0.7277, the Emax (CALU3 (lung, adenocarcinoma)) was 50.88 and the AUC [13] was 0.8808. For the same compound, the Emax [13] was 75.02, the AUC [14] was 0.879 and the Emax [14] was 78.9. For the same compound, the AUC [15] was 0.9684, the Emax [15] was 83.4 and the AUC [16] was 0.7426. It also gave an Emax [16] of 49.07, an AUC (G361 (skin, NS)) of 1.044 and an Emax (G361 (skin, NS)) of 89.52. It also gave an AUC [17] of 0.9864, an Emax [17] of 93.61 and an AUC (HCC827 (lung, adenocarcinoma)) of 0.8814. For the same compound, the Emax (HCC827 (lung, adenocarcinoma)) was 74.84, the AUC [18] was 0.7201 and the Emax [18] was 52.42. It also gave an AUC (HCC1428 (breast, NS)) of 0.7818, an Emax (HCC1428 (breast, NS)) of 59.9889 and an AUC [19] of 0.9094. The Emax [19] was 80.9493, the AUC (HS688AT (skin, NS)) was 1.105 and the Emax (HS688AT (skin, NS)) was 98.47. It also gave an AUC (HS695T (skin, NS)) of 0.9238, an Emax (HS695T (skin, NS)) of 74.11 and an AUC (HS739T (breast, NS)) of 0.8686. For the same compound, the Emax (HS739T (breast, NS)) was 78.35, the AUC (HS839T (skin, NS)) was 1.097 and the Emax (HS839T (skin, NS)) was 101.2434. For the same compound, the AUC (HS852T (skin, NS)) was 0.883, the Emax (HS852T (skin, NS)) was 78.51 and the AUC (HT144 (skin, NS)) was 0.8912. For the same compound, the Emax (HT144 (skin, NS)) was 81.61, the AUC (HUH28 (biliary tract, NS)) was 0.9862 and the Emax (HUH28 (biliary tract, NS)) was 92.15. The EC50 [20] was at least 10 µM, the IC50 [20] was at least 10 µM and the EC50 [21] was at least 10 µM. The IC50 [21] was at least 10 µM, the EC50 [22] was at least 10 µM and the IC50 [22] was at least 10 µM. For the same compound, the EC50 [23] was at least 10 µM, the IC50 [23] was at least 10 µM and the EC50 [24] was at least 10 µM. For the same compound, the IC50 [24] was at least 10 µM, the EC50 [25] was at least 10 µM and the IC50 [25] was at least 10 µM. The EC50 [26] was at least 10 µM, the IC50 [26] was at least 10 µM and the EC50 [27] was at least 10 µM. For the same compound, the IC50 [27] was at least 10 µM, the EC50 [28] was at least 10 µM and the IC50 [28] was at least 10 µM. For the same compound, the EC50 [29] was at least 10 µM, the IC50 [29] was at least 10 µM and the EC50 [30] was at least 10 µM. It also gave an IC50 [30] of at least 10 µM, an EC50 [31] of at least 10 µM and an IC50 [31] of at least 10 µM. For the same compound, the EC50 [32] was at least 10 µM, the IC50 [32] was at least 10 µM and the EC50 [33] was at least 10 µM. It also gave an IC50 [33] of at least 10 µM, an EC50 [34] of at least 10 µM and an IC50 [34] of at least 10 µM. For the same compound, the EC50 [35] was at least 10 µM, the IC50 [35] was at least 10 µM and the EC50 [36] was at least 10 µM. The IC50 [36] was at least 10 µM, the EC50 [37] was at least 10 µM and the IC50 [37] was at least 10 µM. For the same compound, the EC50 [38] was at least 10 µM, the IC50 [38] was at least 10 µM and the EC50 [39] was at least 10 µM. It also gave an IC50 [39] of at least 10 µM, an EC50 [40] of at least 10 µM and an IC50 [40] of at least 10 µM. The EC50 [41] was at least 10 µM, the IC50 [41] was at least 10 µM and the EC50 [42] was at least 10 µM. For the same compound, the IC50 [42] was at least 10 µM, the EC50 [43] was at least 10 µM and the IC50 [43] was at least 10 µM. The EC50 [44] was at least 10 µM, the IC50 [44] was at least 10 µM and the EC50 [45] was at least 10 µM. It also gave an IC50 [45] of at least 10 µM, an EC50 [46] of at least 10 µM and an IC50 [46] of at least 10 µM. It also gave an EC50 [47] of at least 10 µM, an IC50 [47] of at least 10 µM and an EC50 [48] of at least 10 µM. It also gave an IC50 [48] of at least 10 µM, an EC50 [49] of at least 10 µM and an IC50 [49] of at least 10 µM. For the same compound, the EC50 [50] was at least 10 µM, the IC50 [50] was at least 10 µM and the EC50 [51] was at least 10 µM. The IC50 [51] was at least 10 µM, the EC50 [52] was at least 10 µM and the IC50 [52] was at least 10 µM. For the same compound, the EC50 [53] was at least 10 µM, the IC50 [53] was at least 10 µM and the EC50 [54] was at least 10 µM. The IC50 [54] was at least 10 µM, the EC50 [55] was at least 10 µM and the IC50 [55] was at least 10 µM.
